According to US20220243177A1, “METHODS OF CULTURING QUIESCENT HEMATOPOIETIC STEM CELLS AND TREATMENT METHODS” (priority 2019, published 2022):

Tests used:
[1] = test system: MMP-low and MMP-high LT-HSCs transplanted into lethally irradiated mice; test: Competitive in vivo long-term reconstitution assay after ex vivo lysosomal inhibition; design: species or system mouse
Description: Competitive In Vivo Long-Term Reconstitution Assay: MMP-low and MMP-high HSCs (LSKCD150^+CD48^−, LT-HSC; MMP^low/high) were FACS purified from CD45.1 mice and transplanted at the indicated dose of test cells with 2×10^5 CD45.2 bone marrow cells into lethally irradiated CD45.2 recipients (12 Gy as a split dose, 6.5 and 5.5 Gy, 4 hours apart). Donor (CD45.1) and recipient (CD45.2) mice were 8-12 weeks old. HSC frequency was determined by the limiting dilution assay (Hu & Smith, “ELDA: Extreme Limiting Dilution Analysis for Comparing Depleted and Enriched Populations in Stem Cell and Other Assays,” J. Immunol. Methods 347:7 0-78 (2009), which is hereby incorporated by reference in its entirety) based on the number of mice with […] reconstitution (CD45.1) at 16 weeks.
To assay the effect of HSC lysosomal inhibition in a in vivo competitive long-term reconstitution assay: FACS-sorted MMP-low and -high LT-HSCs (CD45.1) were treated with Concanamycin A (ConA,40 nM) or DMSO control in 96 well plates containing StemSpan with SCF (100 ng/ml) and TPO (20 ng/ml) for 4 days, after which 50 cells from each group were mixed with 2×10^5 CD45.2 total bone marrow cells and injected into lethally irradiated CD45.2 recipients and reconstituted peripheral blood was monitored up to four months.

[2] = test system: bone marrow lineage-negative cells; test: Lineage negative bone marrow cell culture, HSC frequency and MMP; format: cell-based, mouse; conditions: ConA 100 nM
Description: For measuring MMP and proliferation, lineage negative bone marrow (BM) cells were enriched with the EasySep Mouse hemato- poietic progenitor kit. Lineage negative (1 3 106) cells (isolated separately from four mice) were seeded onto 6 well plates in Stem-Span medium containing SCF (100 ng/ml) and TPO (20 ng/ml). Cells were treated with ConA (100nM) or the DMSO control and analyzed at 0, 6, 12 and 24 hour-time points by flow cytometry for HSC (LSKCD150+CD48−) frequencies or MMP-low and MMP- high HSCs frequencies or MMP (TMRE).

[3] = test system: aged MMP-low and -high LT-HSCs transplanted into lethally irradiated mice; test: Long-term in vivo competitive repopulation assay of aged HSCs after ex vivo ConA; design: species or system mouse
Description: FIGS. 21A-21C show repression of lysosomal activity ex vivo greatly improves in vivo competitive repopulation of old HSCs. FIG. 21A is a schematic of long-term in vivo competitive repopulation assay. FACS-sorted (5000) aged MMP-low and -high (CD45.2) long-term (LT) HSCs were cultured in vitro in DMSO control or Con A (40 nM) for 4 days after which 100 cells from each group were injected into lethally irradiated recipient (CD45.1) mice along with 2×10^5 CD45.1 total bone marrow competitor cells (n=7). FIG. 21B is a graph showing contribution of donor-derived (CD45.2) cells to the peripheral blood (PB) of primary recipient mice (CD45.1) in a long-term competitive repopulation assay. FIG. 21C is a graph showing lineage output as a percentage of total CD45.2 donor-derived cells in primary recipients. Data expressed as Mean±SEM (**P<0.01, ***P<0.001). Note only ConA-treated old HSCs and not control-treated HSCs generate over 1% chimerism in transplanted animals after 21 weeks.

[4] = test system: MMP-low and MMP-high LSK cells; test: Metabolic assays (Seahorse OCR and ECAR); format: cell-based, mouse; conditions: ConA 40 nM, 18 hours
Description: Metabolic Assays. Oxygen consumption rates (“OCR”) and extracellular acidification rates (“ECAR”) were measured using a 96-well Seahorse Bioanalyzer XF 96 according to manufacturer's instructions using Seahorse Mito Stress Test or Glycolysis Stress Test kit (Agilent Technologies). In brief, MMP-low and MMP-high LSK cells isolated from a pool of at least 11 mice (40,000 cells per well) were sorted and treated with or without ConA (40 nM) for 18 hours in StemSpan media with SCF (10 ng/mL) and TPO (20 ng/mL). Cells were washed and suspended in XF basic medium with 11 mM glucose, 1 mM sodium pyruvate and 2 mM glutamine (pH 7.4 at 37° C.). The injection port A on the sensor cartridge was loaded with […] oligomycin (Oligo), 2 mM FCCP was loaded into port B and 0.5 mM rotenone/antimycin (ROT/AA) A was loaded into port C. During sensor calibration, the cells were incubated in the 37° C. non-CO2 incubator. The plate was immediately placed onto the calibrated XF96 extracellular flux analyzer for the Mito Stress Test. For the glycolysis stress test, cells were suspended in XF basic medium in 1 mM glutamine (pH 7.4 at 37° C.). The injection port A on the sensor cartridge was loaded with 10 mM glucose. Then, 2 mM oligomycin was loaded into port B and 50 mM 2-DG into port C. During sensor calibration, cells were incubated in the 37° C. non-CO2 incubator. The plate was immediately placed in the calibrated XF96 extracellular flux analyzer for the glycolysis stress test.

[5] = test system: MMP-low and MMP-high HSCs; test: Glucose uptake assay (2NBDG); format: cell-based, mouse; conditions: ConA (25 nM, 50 nM), 18 hours
Description: Glucose Uptake Assay: For measurement of glucose uptake, freshly FACS-purified MMP-low and MMP-high HSCs (at least 2,000 cells pooled in average from 8 mice) were cultured immediately in […] of glucose, glutamine, pyruvate free medium containing 100 or 200 μM 2-(n-(7-nitrobenz-2-oxa-1,3-diazol-4-yl amino)-2-deoxyglucose (2-NBD-Glucose, 2NBDG) for 2 hours. Cells were then washed multiple times in PBS, re-suspended in PBS containing 1 μg/ml DAPI, and analyzed by flow cytometry for 2-NBD glucose fluorescence in the FITC channel. In some experiments cells were cultured in StemSpan medium (StemCell Technology) supplemented with SCF (100 ng/ml) and TPO (20 ng/ml), treated with or without STF-31 ([…]), ConA (25, 50 nM), dimethyl alpha ketoglutarate (MOG, 1 mM), methyl pyruvate (MP, 1 mM) or DMSO, incubated at 37° C. in a humidified atmosphere with 5% CO2 for 6 or 18 hours before removing culture medium from each well, washing extensively and adding […] of glucose, glutamine, pyruvate free medium containing […] of 2 NBDG for 2 hours before washing cells multiple times in PBS and analyzing by flow cytometry. Quantification of 2NBDG uptake was measured by the geometric mean fluorescence intensity (“MFI”) as well as % of 2NBDG^+ cells.

[6] = ConA 40 nM ex vivo 4 days, 50 cells transplanted

C/C=C/[C@H]1O[C@@](O)([C@@H](C)[C@H](O)[C@H](C)[C@H]2OC(=O)/C(OC)=C/C(C)=C/[C@@H](C)[C@@H](O)[C@@H](CC)[C@@H](O)[C@H](C)C/C(C)=C/C=C/[C@@H]2OC)C[C@@H](O[C@H]2C[C@@H](O)[C@H](OC(N)=O)[C@@H](C)O2)[C@@H]1C [ConA, concanamycin A]
blood production in secondary transplants ([1]; 38 weeks post-initial transplantation): increased balanced blood production
production of lineages downstream of MMP-high HSCs ([1]; ConA 40 nM ex vivo 4 days): balanced the production of lineages
increase of in vivo competitive repopulation ability, MMP-high HSCs [1, 6]: over 90 fold
increase of in vivo competitive repopulation ability, MMP-low HSCs [1, 6]: 9 fold
HSC self-renewal in secondary transplantations ([1]; young HSCs, ex vivo ConA): increased HSC self-renewal
MMP in recovered cells ([2]; 12-24 hours): relative decrease of MMP
frequency of HSCs recovered from 24-hour in vitro culture ([2]; 24 hours): improved frequency
retention of the MMP-low HSC fraction ([2]; twenty-four-hour): greater retention
lineage output of aged MMP-high HSCs ([3]; 4-day cultured, Con A 40 nM): balanced their lineage output
competitive repopulation ability of aged MMP-high HSCs ([3]; 4-day cultured, Con A 40 nM, 100 cells): remarkably improved
self-renewal of old HSCs and their balance blood production ([3]; ex vivo ConA treatment (FIG. 19 and FIG. 20)): improves significantly
self-renewal of aged HSCs in secondary transplants ([3]; mice receiving control-treated HSCs died): improved self-renewal in secondary transplants
survival of recipients in secondary transplantation ([3]; old HSCs, 4-day ex vivo ConA, not control-treated): survive in secondary transplantation
chimerism in transplanted animals ([3]; old HSCs, after 21 weeks, control-treated HSCs do not): over 1%
glycolysis (ECAR) in MMP-high and MMP-low HSPCs [4]: collapsed glycolysis
oxygen consumption in MMP-low HSPCs [4]: only a relatively small effect
oxygen consumption in primed (MMP-high) HSPCs [4]: drastically decreased oxygen consumption
decrease of glucose uptake in MMP-high HSCs [5]: 19 fold
effect on reducing the viability under the glucose uptake condition [5]: mostly restricted to MMP-high and subtle in MMP-low HSCs
